Literature values as cited in patent US20050227982A1, “Antileishmanial dinitroaniline sulfanomides with activity against parasite tubulin” (priority 2002, published 2005).

Columns and labels:
[1] = system: leishmanial tubulin; conditions: reference 8; cited from earlier work
[2] = literature reference 4; cited from earlier work

For `O=[N+]([O-])c1cc(C(F)(F)F)cc([N+](=O)[O-])c1Cl` [Chloralin, chloralin], the “inhibition of leishmanial tubulin polymerization (in words, earlier publication)” value [1] is given as “inhibitor of leishmanial tubulin polymerization”.
For `CCCN(CCC)c1c([N+](=O)[O-])cc(C(F)(F)F)cc1[N+](=O)[O-]` [Trifluralin, trifluralin], the “aqueous solubility (in words)” value [2] is given as “low solubility”.
